According to patent US11149028B2, “Methods for treating melanoma using small molecules” (NOVA SOUTHEASTERN UNIVERSITY, priority 2016, dated 2021):
“Also recorded” adds a separate entry of the source.

Columns and labels:
HSP90 = details: human, in vivo; cited from earlier work
WM266-4 cells [1] = assay: Cell staining for autophagy (autophagosome dye); assay type: cell-based, human; details: dansylated analog, 25 μM
Description: WM266-4 cells were seeded at 10,000 cells/well in 0.1 mL of E-MEM medium supplemented with 10% FBS and 1% penicillin/streptomycin in 96 well plates (Greiner Bio-One CellStar cat #655180) and allowed to adhere overnight. After overnight incubation 100 μM 2155-14, 2155-18, 50 nM hnRNPH2 siRNA or 25 μM 2476-67.2 were added and incubated for various length of time. Cells were rinsed with warm PBS and stained with CYTO-ID® 1.0 Autophagy reagent (Enzo ENZ-51031-0050) and counterstained with DAPI. Cells were imaged using Cytation 5 imager (Biotek Inc, Winooski, Vt.) using GFP and DAPI filter sets. For % autophagic cells calculations cell counts were conducted using DAPI-stained nuclei and Object Sum Area value was obtained from at least 1,000 cells/well using DAPI channels. To obtain number of cells undergoing autophagy the cell count was conducted using GFP channel. Both GFP and DAPI cell counts were conducted using optimized algorithm in automatic mode. 8 replicate wells were used. % autophagic cells was calculated using Equation 1:% autophagic cells=100%*(number of cells, GFP channenumber of cells, DAPI channel)
To calculate staining intensity, the Object Sum Area value from GFP channel was obtained and divided by number of cells using DAPI channel. Both GFP and DAPI cell counts were conducted using optimized algorithm in automatic mode. 3 replicate wells were used.

[2] = test system: LC3-II and beclin-1 in WM266-4 cells; assay: Western blotting for LC3 and beclin-1, WM266-4; assay type: cell-based, human
Description: (§1) 1×10^6 of WM266-4 or M14 cells were seeded in 3 mL of E-MEM or RPMI-1640 medium supplemented with 10% FBS and 1% penicillin/streptomycin in 6 cm plates. […] After washing with TBST, the membranes were treated with chemilumiscent horseradish peroxidase detection reagent (Thermo Scientific, Cat #32209) and exposed to autoradiography film (Denville Scientific, Inc., Metuchen, N.J., USA, cat #E3018). ImageJ software (NIH, Bethesda, Md.) was used to quantify the intensity of proteins bands. The protein bands were normalized against loading controls (β-actin) and expressed as a fold of an untreated control.

[3] = test system: cleaved lamin A/C in WM266-4 cells; assay: Western blotting for lamin A/C cleavage; assay type: cell-based, human; details: for cleaved lamin A/C level: 100 μM, 24 h
Description: as §1, with “controls.” for “controls (β-actin) and expressed as a fold of an untreated control.”

WM266-4 cells [4] = assay: Cell staining with dansylated derivatives of 2155-14; assay type: cell-based, human; details: 100 μM
Description: WM266-4 cells were seeded at 10,000 cells/well in 0.1 mL of E-MEM medium supplemented with 10% FBS and 1% penicillin/streptomycin in 96 well plates (Greiner Bio-One CellStar cat #655180) and allowed to adhere overnight. After overnight incubation cells were stained with 100 μM of fluorescent analogs of 2155-14 for various length of time, and rinsed with warm PBS. Cells were imaged using Cytation 5 imager (Biotek Inc, Winooski, Vt.) using custom filter set: λexcitation=377/50 and λemission=542/27 nm.

WM266-4 cells [5] = assay: CellTiter-Glo cell viability assay, WM266-4 (including rescue assays); assay type: cell-based, human; details: for IC50: WM 266-4, 72 h
Description: (§2) Cells were plated in 384-well plates in 8 μL of media. Test compounds and dabrafenib (pharmacological assay control) were prepared as 10-point, 1:3 serial dilutions starting at 300 μM, then added to the cells (4 μL per well) using the Biomek Plates were incubated for 72 h at 37° C., 5% CO2 and 95% relative humidity. After incubation, 4 μL of CellTiter-Glo® (Promega cat #: G7570) were added to each well, and incubated for 15 min at room temperature. Luminescence was recorded using a Biotek Synergy H4 multimode microplate reader. Viability was expressed as a percentage relative to wells containing media only (0%) and wells containing cells treated with DMSO only (100%). Three parameters were calculated on a per-plate basis: (a) the signal-to-background ratio (SB); (b) the coefficient for variation [CV; CV=(standard deviation/mean)×100)] for all compound test wells; and (c) the Z′-factor (18). The IC50 value of the pharmacological control (dabrafenib, LC Laboratories #G-4408) was also calculated to ascertain the assay robustness. In case of viability rescue assays, cells were pre-treated with caspase, calpain, and autophagy inhibitors for 1-3 h before addition of test compounds. Time course viability assay was done with luminescence measurements performed at 4, 24, 48, and 72 h.

hnRNP A2/B1 = assay: Pull-down with biotinylated analogs, western blot; assay type: binding, human; details: WM266-4 lysates
Description: (§3) WM-266-4 and M14 cells were sonicated in RIPA lysis buffer containing added protease inhibitors. Affinity beads were prepared by addition of the 0.3 mg biotinylated probes to the 50 μL of streptavidin agarose resin, which was washed three times with the lysis buffer. Following incubation at 4° C. for 1 h, the obtained affinity beads complexed with biotinylated compounds were washed three times with lysis buffer to remove any unbound materials. The cell lysates (1 mg protein content) were then added to the probe-bound beads, and samples were incubated at 4° C. for 1 h and overnight on a rotator. Following 5 washes with lysis buffer, the samples were subjected to SDS-PAGE. The gels were stained overnight with colloidal blue (Invitrogen). Gel bands of interest were excised, reduced, carbidomethylated, dehydrated, and digested with Trypsin Gold (Promega) as per manufacturers' instructions. Following digestion, peptides were extracted, all fractions were combined, and the volume was reduced in a SpeedVac to near dryness, and re-suspended to 20 μL using 95% ddH2O/5% ACN/0.1% formic acid (FA) prior to analysis by 1D reversed-phase LC-nESI-MS2 (as outlined below) (Ludwig, M. R. et al. Surveying the serologic proteome in a tissue-specific kras(G12D) knockin mouse model of pancreatic cancer. Proteomics 16, 516-531, doi:10.1002/pmic.201500133 2016).
(§4) WM-266-4 cells were sonicated in RIPA lysis buffer containing protease inhibitors. Affinity beads were prepared by addition of the biotinylated probes (0.3 mg) to the streptavidin agarose resin (50 μL), which was first washed three times with the lysis buffer. […] The protein extract (1 mg) was then added to the probe-bound beads, and samples were incubated at 4° C. overnight. Following 5 washes with lysis buffer, the protein isolates were subjected to SDS-PAGE followed by transfer to nitrocellulose membrane. hnRNP H2 was detected using rabbit polyclonal antibody (Abgent #: AP13497b; 1:3,000, in 2% milk overnight), DDX1 monoclonal antibody (Santa Cruz #sc-271393, 1:1,000 in 2% BSA overnight), or hnRNP B1/A2 monoclonal antibody (Santa Cruz #SC-32316, 1:1,000 in 2% BSA overnight). After washing with TBST, the membranes were treated with chemilumiscent horseradish peroxidase detection reagent (Thermo Scientific, Cat #32209) and exposed to autoradiography film (Denville Scientific, Inc., Metuchen, N.J., USA, cat #E3018). ImageJ software (NIH, Bethesda, Md.) was used to quantify the intensity of proteins bands. The protein bands were normalized against loading controls.

hnRNP H2 = assay: Pull-down with biotinylated analogs, western blot; assay type: binding, human; details: WM266-4 lysates
Description: as §3, §4

DDX1 = molecular target: T1, DDX1 (Homo sapiens, UniProt Q92499); assay: Pull-down with biotinylated analogs, western blot; assay type: binding; details: WM266-4 lysates
T1 construct: WM-266-4 and M14 cells were sonicated in RIPA lysis buffer; endogenous in cells; host or cells: WM266-4 (and M14) melanoma cells and lysates
Description: WM-266-4 and M14 cells were sonicated in RIPA lysis buffer containing added protease inhibitors. Affinity beads were prepared by addition of the 0.3 mg biotinylated probes to the 50 μL of streptavidin agarose resin, which was washed three times with the lysis buffer. Following incubation at 4° C. for 1 h, the obtained affinity beads complexed with biotinylated compounds were washed three times with lysis buffer to remove any unbound materials. The cell lysates (1 mg protein content) were then added to the probe-bound beads, and samples were incubated at 4° C. for 1 h and overnight on a rotator. Following 5 washes with lysis buffer, the samples were subjected to SDS-PAGE. The gels were stained overnight with colloidal blue (Invitrogen). […]
WM-266-4 cells were sonicated in RIPA lysis buffer containing protease inhibitors. […] Following 5 washes with lysis buffer, the protein isolates were subjected to SDS-PAGE followed by transfer to nitrocellulose membrane. hnRNP H2 was detected using rabbit polyclonal antibody (Abgent #: AP13497b; 1:3,000, in 2% milk overnight), DDX1 monoclonal antibody (Santa Cruz #sc-271393, 1:1,000 in 2% BSA overnight), or hnRNP B1/A2 monoclonal antibody (Santa Cruz #SC-32316, 1:1,000 in 2% BSA overnight). […] ImageJ software (NIH, Bethesda, Md.) was used to quantify the intensity of proteins bands. […]

lamin A/C = assay: Pull-down with biotinylated analogs; assay type: binding, human; details: WM266-4 lysates
Description: as §3

[6] = test system: mouse embryonic fibroblasts (MEF); assay: Viability of mouse embryonic fibroblasts; assay type: cell-based
Description: as §2

calpain in WM266-4 cells = assay: Calpain activity assay (Calpain-Glo); assay type: cell-based, human; details: 25 μM inhibitor, 100 μM 2155-14
Description: The Calpain-Glo Protease Assay (Promega cat #) was used to measure the calpain enzyme activity in live cells, according to the manufacturer's instructions. 1,250 of WM-266-4 cells were plated in 384-well white TC-treated plates in 5 μL of serum-free EMEM media. The cells were incubated overnight at 37° C., 5% CO2 and 95% relative humidity and 5 μL of test compounds 2155-14, (100 μM), calpain inhibitor III and PD151746 (25 μM) were added alone or in combination and incubated at 37° C., 5% CO2, and 95% relative humidity for 0.5, 4, and 24 h. After incubation, 10 μL, of a freshly prepared dilution of the Calpain-Glo Reagent stock solution (consisting of Suc-LLVY-Glo™ substrate, Calpain-Glo™ buffer, Luciferin Detection Reagent, and CaCl2) was added to cells at above mentioned times and luminescence was recorded with a Neo 2 microplate reader (Biotek Inc). All experiments were performed in triplicate and the values provided are the calculated average of at least three independent experiments.

T1 sequence (Q92499 whole entry): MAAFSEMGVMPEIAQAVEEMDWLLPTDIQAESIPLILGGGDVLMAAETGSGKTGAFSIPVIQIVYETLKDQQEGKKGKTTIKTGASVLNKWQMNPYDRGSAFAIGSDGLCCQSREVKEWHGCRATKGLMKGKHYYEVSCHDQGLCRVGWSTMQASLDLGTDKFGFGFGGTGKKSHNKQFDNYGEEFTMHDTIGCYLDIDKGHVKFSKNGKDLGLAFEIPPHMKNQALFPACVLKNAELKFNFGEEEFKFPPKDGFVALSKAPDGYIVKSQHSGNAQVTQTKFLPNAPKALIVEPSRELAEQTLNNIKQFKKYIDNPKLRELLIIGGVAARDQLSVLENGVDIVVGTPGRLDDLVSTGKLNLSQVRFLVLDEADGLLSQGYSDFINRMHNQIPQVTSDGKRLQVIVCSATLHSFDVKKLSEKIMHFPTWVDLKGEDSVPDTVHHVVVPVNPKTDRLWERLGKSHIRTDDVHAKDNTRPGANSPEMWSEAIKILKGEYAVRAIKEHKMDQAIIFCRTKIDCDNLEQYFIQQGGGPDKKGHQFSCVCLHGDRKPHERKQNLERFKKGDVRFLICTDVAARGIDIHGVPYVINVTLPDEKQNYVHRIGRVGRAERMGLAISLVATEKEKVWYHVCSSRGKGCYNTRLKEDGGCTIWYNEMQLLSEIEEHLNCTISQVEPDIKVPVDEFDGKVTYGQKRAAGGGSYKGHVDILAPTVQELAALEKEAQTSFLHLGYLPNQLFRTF

Molecule: C=CCNC1=C2C[C@@H](C)C[C@H](OC)[C@H](O)[C@@H](C)/C=C(\C)[C@H](OC(N)=O)[C@@H](OC)/C=C\C=C(/C)C(=O)NC(=CC1=O)C2=O [Compound 17-AAG]
- clinical outcome in patients carrying BRAF or NRAS mutation (HSP90): melanoma stabilization

Molecule: CN(C)c1cccc2c(S(=O)(=O)NCCN3C(=O)C(=O)N([C@H](CC4CCCCC4)CN4CCC[C@H]4CN4C(=O)C(=O)NC[C@@H]4Cc4ccccc4)C[C@@H]3Cc3ccc(O)cc3)cccc12 [Compound 2476-67.2, N-(2-((S)-4-((R)-1-((S)-2-(((S)-6-benzyl-2,3-dioxopiperazin-1-yl)methyl)pyrrolidin-1-yl)-3-cyclohexylpropan-2-yl)-6-(4-hydroxybenzyl)-2,3-dioxopiperazin-1-yl)ethyl)-5-(dimethylamino)naphthalene-1-sulfonamide]
- autophagosome dye staining (WM266-4 cells [1]): intensive green staining
- LC3-II level ([2]; 2.5 μM, 24 hr): no cleavage of lamin A/C or increase of levels of LC3-II was detected
- LC3 western blot ([2]; 5 μM, 24 hr): neither of LC3 isoforms nor actin were detected
- lamin A/C cleavage ([3]; 2.5 μM, 24 hr): no cleavage of lamin A/C
- lamin A/C western blot ([3]; 5 μM, 24 hr): striking increase of cleaved lamin A/C
- staining of cytoplasm (WM266-4 cells [4]): Diffuse staining of the cytoplasm
- staining of nuclear envelope (WM266-4 cells [4]; 1 h up to 48 h): stains nuclear membrane in both WM266-4 and M14 cells

Molecule: O=C(CCCC[C@@H]1SC[C@@H]2NC(=O)N[C@@H]21)NCCCC[C@H]1CNC(=O)C(=O)N1C[C@@H]1CCCN1C[C@@H](CC1CCCCC1)N1C[C@H](Cc2ccc(O)cc2)N(CCc2ccccc2)C(=O)C1=O [Compound 2529-3, N-(4-((S)-1-(((S)-1-((R)-3-cyclohexyl-2-((S)-5-(4-hydroxybenzyl)-2,3-dioxo-4-phenethylpiperazin-1-yl)propyl)pyrrolidin-2-yl)methyl)-5,6-dioxopiperazin-2-yl)butyl)-5-((3aS,4S,6aR)-2-oxohexahydro-1H-thieno[3,4-d]imidazol-4-yl)pentanamide]
- IC50 (WM266-4 cells [5]; Homo sapiens, 72 h): > 100 µM
- cytotoxicity at 100 µM (WM266-4 cells [5]; Homo sapiens, WM 266-4, 100 μM, 72 h, read-out: maximal inhibition of cell viability): 42%
- LC3-II level ([2]; 100 μM, 24 h): did not significantly increase
- cleaved lamin A/C level [3]: did not significantly increase; also recorded: had no effect on cleavage of lamin A/C
- hnRNP A2/B1 in pulldown, western blot (hnRNP A2/B1): no bands were found
- hnRNP H2 in pulldown, western blot (hnRNP H2): two bands; also recorded: much less abundant

Molecule: O=C(CCCC[C@H]1SC[C@H]2NC(=O)N[C@H]21)NCCCC[C@H]1CN([C@H](CC2CCCCC2)CN2CCC[C@H]2CN2C(=O)C(=O)NC[C@@H]2Cc2ccccc2)C(=O)C(=O)N1CCc1ccccc1 [Compound 2529-7, N-(4-((S)-4-((R)-1-((S)-2-(((S)-6-benzyl-2,3-dioxopiperazin-1-yl)methyl)pyrrolidin-1-yl)-3-cyclohexylpropan-2-yl)-5,6-dioxo-1-phenethylpiperazin-2-yl)butyl)-5-((3aR,4R,6aS)-2-oxohexahydro-1H-thieno[3,4-d]imidazol-4-yl)pentanamide]
- inhibition of WM266-4 viability (WM266-4 cells [5]; 100 μM, 72 h): completely inhibited viability
- IC50 (WM266-4 cells [5]; Homo sapiens, 72 h): 3.3 ± 0.5 µM
- LC3-II level ([2]; 100 μM, 24 h): increased LC3-II to the levels of 2155-14/2529-1; also recorded: effect on LC3-II levels similar to non-biotinylated 2155-14/2529-1
- cleaved lamin A/C level [3]: failing to increase levels of cleaved lamin A/C; also recorded: had no effect on cleavage of lamin A/C; also recorded: did not induce cleavage of lamin A/C
- DDX1 in pulldown, western blot (DDX1): confirmed
- hnRNP A2/B1 in pulldown, western blot (hnRNP A2/B1): three bands
- hnRNP H2 in pulldown, western blot (hnRNP H2): two bands
- lamin A/C interaction in pulldown (lamin A/C): lack of lamin A/C interaction

Molecule: CCCS(=O)(=O)Nc1ccc(F)c(C(=O)c2c[nH]c3ncc(-c4ccc(Cl)cc4)cc23)c1F [vemurafenib, reference compound]
- toxicity to mouse embryonic fibroblasts [6]: toxic

Molecule: MDL-28170 [reference compound]
- viability, combination with 2155-14 (WM266-4 cells [5]; 25 μM inhibitor, 100 μM 2155-14): even more pronounced negative effect on viability of cells than either compound alone
- calpain activity induced by 2155-14 after calpain inhibitor pre-treatment (calpain in WM266-4 cells): shut down calpain activity induced by 2155-14 at 30 min and 4 h but not at 24 h
